# Patent US4954482A, “New glycopeptide antibiotic” (Pfizer Inc., priority 1986, dated 1990)
# Test system: rumen fluid
# Experiment: In vitro rumen technique: propionic acid production
# Format: cell-based, cow
# Conditions: 10 micrograms per milliliter; rumen fluid incubated at 39° C. about 16 hours
# Description: The value of animal feeds has generally been determined directly by feeding the animal. British Patent Specification No. 1,197,826 details an in vitro rumen technique whereby the changes occurring in feeds brought about by microorganisms are measured more readily and with great accuracy in the evaluation of animal feeds. This technique involves the use of an apparatus in which the digestive processes of the animals are conducted and studied in vitro. The animal feeds, rumen inoculum and various growth promotants are introduced into and withdrawn from a laboratory unit under carefully controlled conditions and the changes taken place are studied critically and progressively during the consumption of the feed by the microorganisms. […] The change in propionic acid content is expressed as percent of the propionic acid content found in the control rumen fluid. Long term in vivo feeding studies are used to show a reliable correlation between propionic acid increase in the rumen fluid and improved animal performance. […]
# After incubation, 5 ml. of the sample is mixed with 1 ml. of 25% metaphosphoric acid. […] Samples are then analyzed by gas-liquid chromatography by the mthod of D. W. Kellog, J. Dairy Science, 52, 1690, 1969. Peak heights for acetic, propionic and butyric acids are determined for samples from untreated and treated incubation flasks.
smiles,measurement,value
CC[C@@H](C(=O)[C@@H](C)[C@@H](O)[C@H](C)[C@@H]1O[C@@H]([C@@H](CC)C(=O)O)CC[C@@H]1C)[C@H]1O[C@]2(C=C[C@@H](O)[C@]3(CC[C@@](C)([C@H]4CC[C@](O)(CC)[C@H](C)O4)O3)O2)[C@H](C)C[C@@H]1C [salinomycin],increase in the production of propionic acid over control,~46%
